For the test, the target named is T1, VLA4 (Homo sapiens, UniProt P05556+P13612).
T1 construct: endogenous in cells; host or cells: Ramos cells
T1 sequence (P13612 34-1032): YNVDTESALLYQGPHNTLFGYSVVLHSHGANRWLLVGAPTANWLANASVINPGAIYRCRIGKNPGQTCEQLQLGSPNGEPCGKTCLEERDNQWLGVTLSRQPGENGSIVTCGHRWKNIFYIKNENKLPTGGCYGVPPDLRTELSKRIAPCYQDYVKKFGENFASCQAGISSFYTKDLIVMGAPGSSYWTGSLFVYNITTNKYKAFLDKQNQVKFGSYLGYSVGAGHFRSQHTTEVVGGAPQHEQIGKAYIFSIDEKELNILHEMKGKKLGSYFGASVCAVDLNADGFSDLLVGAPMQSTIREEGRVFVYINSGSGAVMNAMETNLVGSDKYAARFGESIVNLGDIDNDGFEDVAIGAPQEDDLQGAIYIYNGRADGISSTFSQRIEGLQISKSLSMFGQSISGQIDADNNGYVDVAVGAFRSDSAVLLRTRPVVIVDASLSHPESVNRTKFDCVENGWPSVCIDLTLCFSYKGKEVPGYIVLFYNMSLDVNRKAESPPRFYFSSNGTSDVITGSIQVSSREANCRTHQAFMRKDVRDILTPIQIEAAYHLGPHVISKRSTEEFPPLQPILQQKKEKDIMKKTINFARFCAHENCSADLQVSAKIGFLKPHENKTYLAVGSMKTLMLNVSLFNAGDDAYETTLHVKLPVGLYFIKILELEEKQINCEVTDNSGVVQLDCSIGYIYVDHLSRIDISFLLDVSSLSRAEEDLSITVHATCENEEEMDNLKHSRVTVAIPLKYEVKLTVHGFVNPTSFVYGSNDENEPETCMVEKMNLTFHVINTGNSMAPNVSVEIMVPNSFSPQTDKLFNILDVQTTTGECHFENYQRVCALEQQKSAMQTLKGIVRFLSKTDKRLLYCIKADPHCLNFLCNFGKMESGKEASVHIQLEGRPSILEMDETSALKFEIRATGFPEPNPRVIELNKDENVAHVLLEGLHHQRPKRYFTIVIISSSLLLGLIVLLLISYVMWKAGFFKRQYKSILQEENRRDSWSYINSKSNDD
T1 sequence (P05556 21-798): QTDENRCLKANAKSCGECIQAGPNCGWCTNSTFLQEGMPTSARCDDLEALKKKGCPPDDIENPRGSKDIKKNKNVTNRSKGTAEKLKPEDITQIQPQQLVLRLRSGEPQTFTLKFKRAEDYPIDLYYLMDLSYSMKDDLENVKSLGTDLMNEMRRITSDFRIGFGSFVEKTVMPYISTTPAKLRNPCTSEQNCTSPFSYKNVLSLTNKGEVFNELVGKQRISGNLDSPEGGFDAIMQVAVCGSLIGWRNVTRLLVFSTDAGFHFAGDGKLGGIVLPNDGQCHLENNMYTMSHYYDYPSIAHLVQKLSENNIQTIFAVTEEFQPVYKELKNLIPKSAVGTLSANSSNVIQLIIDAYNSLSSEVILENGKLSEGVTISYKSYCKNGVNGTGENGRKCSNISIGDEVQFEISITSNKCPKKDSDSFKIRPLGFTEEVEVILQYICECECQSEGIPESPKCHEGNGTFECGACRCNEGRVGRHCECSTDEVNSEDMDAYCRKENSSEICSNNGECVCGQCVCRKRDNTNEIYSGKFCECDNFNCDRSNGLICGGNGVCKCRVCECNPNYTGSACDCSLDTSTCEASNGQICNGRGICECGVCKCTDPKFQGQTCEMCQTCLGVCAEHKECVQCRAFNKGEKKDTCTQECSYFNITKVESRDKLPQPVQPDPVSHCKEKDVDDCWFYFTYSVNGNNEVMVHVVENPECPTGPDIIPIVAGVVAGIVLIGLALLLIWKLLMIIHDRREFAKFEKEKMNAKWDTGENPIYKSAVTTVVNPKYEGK
The experiment in a line: Inhibition of VLA4-dependent adhesion to BSA-CS1 (labelled Ramos cells). The test is classed as cell-based. To be noted: binding of BCECF-AM labelled Ramos cells to CS1 peptide-coated wells, 2 mM MnCl2, 30 minutes at room temperature; IC50 range. An excerpt:
For example, the cell adhesion inhibitory activity of these compounds may be measured by determining the concentration of inhibitor required to block the binding of VLA-4-expressing cells to fibronectin- or CS1-coated plates. In this assay microtiter wells are coated with either fibronectin (containing the CS-1 sequence) or CS-1. If CS-1 is used, it must be conjugated to a carrier protein, such as bovine serum albumin, in order to bind to the wells. Once the wells are coated, varying concentrations of the test compound are then added together with appropriately labelled, VLA-4-expressing cells. Alternatively, the test compound may be added first and allowed to incubate with the coated wells prior to the addition of the cells. The cells are allowed to incubate in the wells for at least 30 minutes. Following incubation, the wells are emptied and washed. Inhibition of binding is measured by quantitating the fluorescence or radioactivity bound to the plate for each of the various concentrations of test compound, as well as for controls containing no test compound.
VLA-4-expressing cells that may be utilized in this assay include Ramos cells, Jurkat cells, A375 melanoma cells, as well as human peripheral blood lymophocytes (PBLs). The cells used in this assay may be fluorescently or radioactively labelled.
This assay was used to assess the potency of VLA4-directed inhibitory compounds of this invention.
We dissolved BSA-SMCC (Pierce Chemical, Rockford, Ill.; Catalog # 77115) in H2O at a concentration of 10 mg/mL. [SEQ ID NO:4]: […](“Cys-Tyr-CS1 peptide”), which we synthesized by conventional solid phase chemistry and purified by HPLC, was dissolved in 10 mM HEPES pH 5, 50 mM NaCl and 0.1 mM EDTA also at a concentration of 10 mg/mL. We then mixed 500 μL of BSA-SMCC, 250 μL of Cys-Tyr-CS1 peptide and 75 μL of […] and allowed the conjugation reaction to proceed for 30 minutes. We stopped the reaction by adding 1 μL of beta-mercaptoethanol. Samples were analyzed for cross-linking by SDS-PAGE. This reaction produced multiple molecules of the Cys-Tyr-CS1 peptide conjugate to each BSA molecule.
We coated the wells of a Linbro titertek polystyrene 96-well flat bottom plate (Flow Laboratories, Maclean, Va.; catalog #76-231-05) with 100 μL of the above-described BSA-CS1 solution diluted to 1 μg/mL in 0.05 M NaHCO3 (15 mM NaHCO3, 35 mM Na2CO3) pH 9.2. Some wells were not coated with CS1 in order to assess non-specific cell binding (NSB). The plate was then incubated overnight at 4° C.
Following this incubation, the contents of the wells were removed by inverting and blotting the plate. All of the wells were then blocked with 100 μL of 1% BSA in PBS, 0.02% NaN3, for a minimum of one hour at room temperature.
3. Preparation of Fluorescently Labelled Ramos Cells Ramos cells are grown, maintained and labelled in RPMI 1640 culture medium containing 1% BSA. Just prior to running the assay, we added 2′,7′-bis-(2-carboxyethyl)5 (and -6) carboxyfluorescein acetoxymethyl ester (“BCECF-AM”; Molecular Probes Inc., Eugene, Oreg.; catalog #B-1150) to a final concentration of 2 μM to a culture of Ramos cells (4×10^6 cells/mL). We incubated the cells for 20 minutes at 37° C.
Following labelling, the cells were washed twice in assay buffer (24 mM TRIS, 137 mM NaCl, 2.7 mM KCl, pH 7.4, containing 0.1% BSA and 2 mM glucose) to remove any cations originating from the culture medium. The cells were then resuspended in assay buffer to 4×10^6 cells/mL and 2 mM MnCl2 was added to upregulate VLA4 on the surface of the cells.
Immediately prior to running the assay, we removed the BSA blocking solution from the 96-well plates and washed the wells with 100 μL of assay buffer. We then added to each well 25 μL of test cell adhesion inhibitory compound at 2× the final concentration and 25 μL of the labelled Ramos cells. Final concentrations were selected across a range of anticipated IC50s, usually between 0.01 nM–10 μM. […]
Compound `CC(C)CC(NC(=O)Cc1ccc(NC(=O)OC(C)(C)C)cc1)C(=O)NC(CC(=O)O)c1ccccc1` (stereo not shown) [compound 1145] returned an IC50 of 0.05 to 10 µM.
Under `COc1cccc(C(CC(=O)O)NC(=O)C(CC(C)C)NC(=O)Cc2ccc(O)cc2)c1` (stereo not shown) [compound 1146] stands 0.05 to 10 µM; under `CC(=O)Nc1ccc(CC(=O)NC(CC(C)C)C(=O)NC(CC(=O)O)c2ccccc2)cc1` (stereo not shown) [compound 1147], 0.05 to 10 µM; under `CC(C)CC(NC(=O)Cc1ccc(O)cc1)C(=O)NC(CC(=O)O)c1cccnc1` (stereo not shown) [compound 1148], greater than 10 µM.
Under `CC(C)CC(NC(=O)c1ccc2ccccc2n1)C(=O)NC(CC(=O)O)c1ccccc1` (stereo not shown) [compound 1149] stands greater than 10 µM; under `CC(C)CC(NC(=O)CCc1ccccc1)C(=O)NC(CC(=O)O)c1ccccc1` (stereo not shown) [compound 1150], greater than 10 µM; under `CC(C)CC(NC(=O)OCc1ccccc1)C(=O)NC(CC(=O)O)c1cccnc1` (stereo not shown) [compound 1153], greater than 10 µM.
The compound `CC(C)CC(NC(=O)Cc1ccccc1)C(=O)NC(CC(=O)O)Cc1ccccc1` (stereo not shown) [compound 1157] gave an IC50 greater than 10 µM.
`CC(C)CC(NC(=O)Cc1ccccc1)C(=O)NC(CC(=O)O)c1ccc2c(c1)OCO2` (stereo not shown) [compound 1158] displayed an IC50 of 0.05 to 10 µM.
In turn, `COc1ccccc1C(CC(=O)O)NC(=O)C(CC(C)C)NC(=O)Cc1ccccc1` (stereo not shown) [compound 1159] showed an IC50 greater than 10 µM.
Turning to `CSCCC(NC(=O)Cc1ccc(NC(=O)Nc2ccccc2)cc1)C(=O)NC(CC(=O)O)c1ccc2c(c1)OCO2` (stereo not shown) [compound 1163], the IC50 lay in the range of 0.05 to 10 µM.
Consider `CSCCC(NC(=O)Cc1ccccc1)C(=O)NC(CC(=O)O)c1ccc2c(c1)OCO2` (stereo not shown) [compound 1164], for which the IC50 is 0.05 to 10 µM.
Compound `Cc1cccc(NC(=O)Nc2ccc(CC(=O)NC(CC(C)C)C(=O)NC(CC(=O)O)c3ccc4c(c3)OCO4)cc2)c1` (stereo not shown) [compound 1168] gave an IC50 of 0.05 to 10 µM.
On to `CC(C)CC(NC(=O)Cc1ccc(NC(=O)NCc2ccccc2)cc1)C(=O)NC(CC(=O)O)c1ccc2c(c1)OCO2` (stereo not shown) [compound 1169], for which the IC50 fell in the range of 0.05 to 10 µM.
On to `O=C(O)CC(NC(=O)C(CC(=O)N1CCOCC1)NC(=O)Cc1ccc(NC(=O)Nc2ccccc2)cc1)c1ccc2c(c1)OCO2` (stereo not shown) [compound 1170], for which the IC50 lay in the range of 0.05 to 10 µM.
The compound `COc1ccc(C(CC(=O)O)NC(=O)C(CC(C)C)NC(=O)Cc2ccc(O)cc2)cc1` (stereo not shown) [compound 1173] displayed an IC50 of 0.05 to 10 µM.
As for `COc1ccc(C(CC(=O)O)NC(=O)C(CCSC)NC(=O)Cc2ccc(O)cc2)cc1` (stereo not shown) [compound 1174], the 50% inhibitory concentration (IC50) lay within 0.05 to 10 µM.
Under `COc1ccc(C(CC(=O)O)NC(=O)C(CCSC)NC(=O)Cc2ccccc2)cc1` (stereo not shown) [compound 1175] stands 0.05 to 10 µM; under `O=C(O)CC(NC(=O)C(CC(=O)N1CCSCC1)NC(=O)Cc1ccc(NC(=O)Nc2ccccc2)cc1)c1ccc2c(c1)OCO2` (stereo not shown) [compound 1176], 0.05 to 10 µM.
The compound `C#CCN(C)C(=O)CC(NC(=O)Cc1ccc(NC(=O)Nc2ccccc2)cc1)C(=O)NC(CC(=O)O)c1ccc2c(c1)OCO2` (stereo not shown) [compound 1177] gave a half-inhibitory concentration (IC50) of 0.05 to 10 µM.
Take `COc1ccc(C(CC(=O)O)NC(=O)C(CC(C)C)NC(=O)Cc2ccccc2)cc1` (stereo not shown) [compound 1178]: the half-inhibitory concentration (IC50) was in the range of 0.05 to 10 µM.
In turn, `Cc1ccccc1NC(=O)Nc1ccc(CC(=O)NC(CC(C)C)C(=O)NC(CC(=O)O)c2ccc3c(c2)OCO3)cc1` (stereo not shown) [compound 1179] registered an IC50 of less than 0.05 µM.
Regarding `COc1ccc(C(CC(=O)O)NC(=O)C(CC(C)C)NC(=O)Cc2ccc(NC(=O)Nc3nccs3)cc2)cc1` (stereo not shown) [compound 1180], the 50% inhibitory concentration (IC50) fell in the range of 0.05 to 10 µM.
As for `CC(C)CC(NC(=O)Cc1ccc(NC(=O)Nc2cccc(Cl)c2)cc1)C(=O)NC(CC(=O)O)c1ccc2c(c1)OCO2` (stereo not shown) [compound 1181], the IC50 was 0.05 to 10 µM.
Under `CC(C)CC(NC(=O)Cc1ccc(NC(=O)Nc2ccncc2)cc1)C(=O)NC(CC(=O)O)c1ccc2c(c1)OCO2` (stereo not shown) [compound 1182] stands 0.05 to 10 µM; under `CC(C)CC(NC(=O)Cc1ccc(NC(=O)Nc2ccccc2Cl)cc1)C(=O)NC(CC(=O)O)c1ccc2c(c1)OCO2` (stereo not shown) [compound 1185], less than 0.05 µM; under `CC(C)CC(NC(=O)CCCNC(=O)Nc1ccccc1)C(=O)NC(CC(=O)O)c1ccccc1` (stereo not shown) [compound 1187], greater than 10 µM.
Under `CC(C)CC(NC(=O)C1(c2ccccc2)CC1)C(=O)NC(CC(=O)O)c1ccc2c(c1)OCO2` (stereo not shown) [compound 1188] stands greater than 10 µM; under `CC(C)CC(NC(=O)C1CCc2ccccc21)C(=O)NC(CC(=O)O)c1ccccc1` (stereo not shown) [compound 1189], greater than 10 µM; under `COc1ccc(C(CC(=O)O)NC(=O)C(CC(C)C)NC(=O)Cc2ccc(NC(=O)Nc3ccccc3C)cc2)cc1` (stereo not shown) [compound 1190], less than 0.05 µM.
As to `O=C(O)CC(NC(=O)C(CCN1CCOCC1)NC(=O)Cc1ccc(NC(=O)Nc2ccccc2)cc1)c1ccc2c(c1)OCO2` (stereo not shown) [compound 1191], the IC50 is 0.05 to 10 µM.
In the case of `COc1ccc(C(CC(=O)O)NC(=O)C(CC(C)C)NC(=O)Cc2ccc(NC(=O)Nc3ccccc3OC)cc2)cc1` (stereo not shown) [compound 1192], the IC50 was less than 0.05 µM.
With `COc1ccc(C(CC(=O)O)NC(=O)C(CC(C)C)N(C)C(=O)Cc2ccc(NC(=O)Nc3ccccc3)cc2)cc1` (stereo not shown) [compound 1193], the IC50 is 0.05 to 10 µM.
The figure for `COc1ccc(C(CC(=O)O)NC(=O)C(CC(C)C)NC(=O)Cc2ccc(NC(=O)Nc3ccccn3)cc2)cc1` (stereo not shown) [compound 1194] is 0.05 to 10 µM.
The figure for `COc1ccc(C(CC(=O)O)NC(=O)C(CC(C)C)NC(=O)Cc2ccc(NC(=O)Nc3ccccc3)cc2)cc1OC` (stereo not shown) [compound 1196] is less than 0.05 µM.
Turning to `CC(C)CC(NC(=O)Cc1ccc(NC(=O)N2CCOCC2)cc1)C(=O)NC(CC(=O)O)c1ccc2c(c1)OCO2` (stereo not shown) [compound 1198], the IC50 was greater than 10 µM.
With `COc1ccc(C(CC(=O)O)NC(=O)C(CC[S+](C)[O-])NC(=O)Cc2ccc(NC(=O)Nc3ccccc3)cc2)cc1` (stereo not shown) [compound 1199], the concentration for half-maximal inhibition (IC50) was 0.05 to 10 µM.
Turning to `CCc1ccccc1NC(=O)Nc1ccc(CC(=O)NC(CC(C)C)C(=O)NC(CC(=O)O)c2ccc3c(c2)OCO3)cc1` (stereo not shown) [compound 1200], the IC50 lay in the range of 0.05 to 10 µM.
The compound `CC(C)CC(NC(=O)Cc1ccc(NC(=O)Nc2ccccc2[N+](=O)[O-])cc1)C(=O)NC(CC(=O)O)c1ccc2c(c1)OCO2` (stereo not shown) [compound 1201] returned an IC50 of 0.05 to 10 µM.
`CC(C)CC(NC(=O)Cc1ccc(NC(=O)Nc2ccccc2C(C)C)cc1)C(=O)NC(CC(=O)O)c1ccc2c(c1)OCO2` (stereo not shown) [compound 1206] yielded an IC50 of less than 0.05 µM.
`COc1ccc(C(CC(=O)O)NC(=O)C(CC(C)C)NC(=O)Cc2ccc(NC(=O)Nc3ccccc3C(C)C)cc2)cc1` (stereo not shown) [compound 1207] came in with an IC50 greater than 10 µM.
Under `CCc1ccccc1NC(=O)Nc1ccc(CC(=O)NC(CC(C)C)C(=O)NC(CC(=O)O)c2ccc(OC)cc2)cc1` (stereo not shown) [compound 1208] stands 0.05 to 10 µM; under `CC(C)CC(NC(=O)Cc1ccc(NC(=O)Nc2ccccc2C(C)(C)C)cc1)C(=O)NC(CC(=O)O)c1ccc2c(c1)OCO2` (stereo not shown) [compound 1209], greater than 10 µM; under `Cc1ccccc1NC(=O)Nc1ccc(CC(=O)NC(CC(C)C)C(=O)NC(CC(=O)O)c2ccc3c(c2)OCCO3)cc1` (stereo not shown) [compound 1210], less than 0.05 µM.
The compound `CN(C)C(=O)CC(NC(=O)Cc1ccc(NC(=O)Nc2ccccc2)cc1)C(=O)NC(CC(=O)O)c1ccc2c(c1)OCO2` (stereo not shown) [compound 1214] displayed an IC50 of 0.05 to 10 µM.
Regarding `CN(C)CCC(NC(=O)Cc1ccc(NC(=O)Nc2ccccc2)cc1)C(=O)NC(CC(=O)O)c1ccc2c(c1)OCO2` (stereo not shown) [compound 1215], the IC50 was greater than 10 µM.

As a reminder, the IC50 is the point on the concentration scale where inhibition reaches its midpoint. A higher IC50 goes with weaker potency.

For the origin of these results see patent publication US7001921B1, “Cell adhesion inhibitors” (Biogen Idec MA Inc., priority 1995, dated 2006).
